The text below walks through data of patent publication US9562899B2, “Method of detecting OXA-048 carbapenemase producing bacteria” (BIOMÉRIEUX, priority 2012, dated 2017).

Holding throughout (assay type): cell-based, Enterobacteriaceae
The subject of one assay is VIM strains. The note with it: class B CPEs of VIM type; proportionally to the EDTA concentration used. An excerpt:
(§1) Optimization of the Detection Specificity by Introducing Specific Inhibitors Inhibition of Class B Strains (NDM, VIM, IMP) by Adding EDTA
(§2) Identical to that used to determine the temocillin MICs by agar dilution (example 1).
(§3) For each temocillin concentration, the following concentrations of active EDTA will be tested in the form of disodium EDTA: 0, 1.77, 2.12, 2.47 and 2.83 mmol/l.
(§4) Method: identical to the method used in example 1.

The test system of assay [1] is strains with impermeability-mediated resistance (IR). To be noted: strains with impermeability-mediated resistance to carbapenems (IR).
Source text: as §1, §2, §3, §4

In the next assay the test system is NDM-1 strains. To be noted: class B CPEs of NDM type; proportionally to the EDTA concentration used.
Source text: as §1, §2, §3, §4

In the case of `O=C(O)CN(CCN(CC(=O)O)CC(=O)O)CC(=O)O` [EDTA], the “effect of EDTA on temocillin MIC” value was “decrease in their MIC” in the assay on VIM strains, “slight increase in the MICs” in assay [1] and “decrease in their MIC” in the assay with NDM-1 strains.
